These results are taken from US9974760B2, “Compositions and methods for treating cancer” (Chemo-Enhanced LLC, priority 2011, dated 2018).

Entries after “also recorded” stand apart in the source; their conditions may differ.

One experiment concerns L3.6 pancreatic cells. It counts as in vivo. Particulars: taxol 3 mg/ml, C6-ceramide 10 mg/ml, i.p. 3×/wk, vs control. On the procedure: Treatment was started 4 days after L3.6 cell injection with thrice weekly (3×/wk) intraperitoneal (i.p.) injections of paclitaxel 3.0 mg/ml with or without C6-ceramide (10 mg/ml) for 2 weeks. Mouse survival (FIGS. 2A and 2C), tumor volume (in cm^3; FIG. 2B), mouse body weight (in grams) were recorded (FIG. 2E). The average rate of tumor development was calculated by total tumor volume dividing by total number of days monitored (FIG. 2C).
SCID/Beige/Taconic nude male mice (22-25 g; 6-8 weeks old) were ear tagged and randomized into 4 different groups (Control, Ceramide, gemcitabine, Ceramide+gemcitabine) combining 5 mice each prior to inoculation subcutaneous (s.c.) with 2×10^6 L3.6 cells in a 0.1 ml volume into the internal surface of the right thigh. Treatment was started 4 days after L3.6 cell injection with thrice weekly (3×/wk) intraperitoneal (i.p.) injections of gemcitabine (two doses: 5.0 and 10.0 mg/ml) with or without C6-ceramide (10 mg/ml) for 2 weeks. Mouse survival (FIGS. 3A, 3B, and 3E) and tumor volume (in cm^3; FIGS. 3C and 3D) were recorded (FIG. 3E). Pancreatic cancer cell lines, including L3.6 cells (FIG. 3F), Panc-1 cells (FIG. 3G) and MIA-PaCa2 cells (MIA, FIG. 3H) were cultured in basic DMEM medium and were treated with gemcitabine (Gem, 1 μg/ml). Mitomycin C was always present in the media to prevent cell proliferation from occurring.
SCID/Beige/Taconic male mice were inoculated with 2×10^6 L3.6 pancreatic cells and treated […] 4 days post tumor implant with thrice weekly (3×/wk) intraperitoneal (I.P.) injections of paclitaxel (taxol) 3.0 mg/ml or gemcitabine (Gem) 10 mg/ml after treatment and were autopsied when near death (as per IRB committee). Mouse survival, tumor volume (in cm^3), and body weight (in grams) were recorded. Average rate of tumor development was calculated by dividing total tumor volume by total number of days monitored.
The possible combination effect of C6-ceramide on gemcitabine-induced cytotoxicity (in vitro) and regression (in vivo) of the L3.6 pancreatic cancer cell was also tested according to the methods described in Examples 2 and 3.

For a further experiment, the system named is ERK. Briefly: Western Blot of ERK activation in L3.6 cells. Format: cell-based. On the procedure:
Pancreatic cancer cell lines L3.6 cells were left untreated or treated with gemcitabine (Gem, 1 μg/ml) or taxol (1.5 μg/ml) in the presence or absence of C6-ceramide (10 μg/ml) for 2, 4 and 6 hours, AKT/mTORC1 and ERK activation were detected by Western Blot using indicated antibodies (FIGS. 5A and 5C). p-AKT (S473) and p-ERK at 4 hour time intervals for each treatment quantified (FIGS. 5B and 5D). L3.6 cells were pretreated with various inhibitors including PI3K/AKT inhibitor LY 294002 (LY, 1 μM), mTORC1 inhibitor rapamycin (100 nM), MEK/ERK inhibitor U0126 (1 μg/ml) or gemcitabine (1 μg/ml) for 48 hours, cell death was detected 48 hours later (FIG. 5E).
As described in Cao et al. (2009) Sci. Signal, 2:RA17, aliquots of 30-40 μg of protein from each sample (treated as indicated in the legends) were separated by 10% SDS-polyacrylamide gel electrophoresis (SDS-PAGE) and transferred onto a polyvinylidene difluoride (PVDF) membrane (Millipore, Bedford, Mass.). After blocking with 10% instant nonfat dry milk for 1 hour, membranes were incubated with specific antibodies overnight at 4° C. followed by incubation with secondary antibodies (HRP-conjugated anti-rabbit or anti-mouse IgG at the appropriate dilutions) for 60 minutes to 1 hour at room temperature. Antibody binding was detected with the enhanced chemiluminescence (ECL) detection system (Amersham Biosciences, Piscataway, N.J.).
A general note: In western blotting, separated proteins are transferred to a membrane and probed.

In another experiment the test system is AMPK/ACC. The experiment in a line: AMPK/ACC signaling in L3.6 cell line. Format: cell-based. The settings on record: for AMPK activation: taxol alone. From the text:
The molecular mechanism involved in C6-ceramide induced chemosensitization effects was examined by focusing on taxol.
To further confirm the requirement of AMPK activation in this synergistic effect, siRNA directed against AMPK can be used.

For the molecule `CC(=O)O[C@H]1C(=O)[C@@]2(C)[C@H]([C@H](OC(=O)c3ccccc3)[C@]3(O)C[C@H](OC(=O)[C@H](O)[C@@H](NC(=O)c4ccccc4)c4ccccc4)C(C)=C1C3(C)C)[C@]1(OC(C)=O)CO[C@@H]1C[C@@H]2O` [paclitaxel], in the experiment with L3.6 pancreatic cells, the mouse survival entry is “minimal effects”. In addition, the tumor volume entry in the experiment with L3.6 pancreatic cells is listed as “minimal effects”. The “effect on C6-ceramide inhibition of ERK activation” value in the experiment on ERK (added to C6-ceramide) is listed as “enhanced”. The AMPK activation result is recorded as “strongly induce” in the experiment with AMPK/ACC (listed as Taxol) and “moderate AMPK activation” with AMPK/ACC (listed as taxol).
For the molecule `CCCCCCCCCCCCC/C=C/[C@@H](O)[C@H](CO)NC(=O)CCCCC` [C6-ceramide, N-hexanoyl-D-sphingosine], in the experiment with L3.6 pancreatic cells, the mouse survival result is recorded as “minimal effects” and the tumor volume result was “minimal effects”. In addition, the “ERK activation / signaling” value in the experiment with ERK (L3.6 cells, Western Blot) is “induced moderate survival of AKT/mTORC1 and ERK activation; also recorded: inhibited”. For the same molecule, the “effect on Taxol induced AMPK/ACC signaling (phosphorylation)” value in the experiment on AMPK/ACC (C6-ceramide added to taxol, L3.6 cell line) is “enhancing; also recorded: dramatically enhances”.
